Assay results reported in patent US7612089B2, “Tetrahydroisoquinolines as factor Xa inhibitors” (Portola Pharmaceuticals, Inc., priority 2004, dated 2009).

Target: T1, human plasma protein factor Xa (Homo sapiens, UniProt P00742)
T1 construct: The human plasma protein factor Xa was purchased; purchased Haematologic Technologies (Essex Junction, Vt.); host or cells: human plasma
Test: Factor Xa IC50 determination (cleavage of paranitroanilide substrate S-2765)
Assay type: biochemical
Conditions: fXa 1 nM, S2765 100 μM, Tris buffered saline pH 7.4, room temperature
Text: This example illustrates methods for evaluating the compounds of the invention, along with results obtained for such assays. The in vitro and in vivo Factor Xa isoform activities of the inventive compounds can be determined by various procedures known in the art, such as a test for their ability to inhibit the activity of the Factor Xa isoform. […] The IC50 value is the concentration (in nM) of the compound required to provide 50% inhibition of Factor Xa isoform.
An in vitro assay for detecting and measuring inhibition activity against Factor Xa is as follows:
IC50 and Ki Determinations:
The substrate S-2765 (Z-D-Arg-Gly-Arg-pNA.HCl) was obtained from Diapharma (West Chester, Ohio).
The human plasma protein factor Xa was purchased from Haematologic Technologies (Essex Junction, Vt.).
All assays, which are performed in 96-well microtiter plates, measure proteolytic activity of the enzyme (factor Xa) by following cleavage of paranitroanilide substrate. The assay buffer used for proteolytic assays was Tris buffered saline (20 mM Tris, 150 mM NaCl, 5 mM CaCl2, 0.1% Bovine serum albumin (BSA), 5% Dimethly Sulfoxide (DMSO) pH 7.4). In a 96-well microtiter plate, inhibitor was serially diluted to give a range of concentrations from 0.01 nM to 10 μM (final). Duplicate sets of wells were assayed and control wells without inhibitor were included. Enzyme was added to each well, (fXa concentration=1 nM), the plate was shaken for 5 seconds and then incubated for 5 minutes at room temperature. S2765 was added (100 μM final) and the plate was shaken for 5 seconds (final liquid volume in each well was 200 μl). The degree of substrate hydrolysis was measured at 405 nm on a Thermomax plate reader (Molecular Devices, Sunnyvale, Calif.) for 2 minutes. The initial velocities (mOD/min), for each range of inhibitor concentrations, were fitted to a four parameter equation using Softmax data analysis software. The parameter C, derived from the resulting curve-fit, corresponded to the concentration for half maximal inhibition (IC50).

T1 sequence (P00742 235-488 limits assumed): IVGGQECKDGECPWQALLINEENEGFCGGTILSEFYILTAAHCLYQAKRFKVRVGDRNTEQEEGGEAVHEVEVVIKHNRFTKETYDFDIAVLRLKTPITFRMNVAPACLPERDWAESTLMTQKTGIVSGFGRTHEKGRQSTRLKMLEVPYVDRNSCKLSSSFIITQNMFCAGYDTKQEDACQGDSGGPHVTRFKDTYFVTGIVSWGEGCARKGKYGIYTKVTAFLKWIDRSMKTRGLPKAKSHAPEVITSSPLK
T1 sequence (P00742 41-179 partner limits assumed): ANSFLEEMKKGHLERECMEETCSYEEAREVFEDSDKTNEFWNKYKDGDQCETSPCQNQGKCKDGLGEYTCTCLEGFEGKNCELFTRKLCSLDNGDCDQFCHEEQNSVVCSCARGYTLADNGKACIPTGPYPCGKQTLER

| SMILES | IC50 [nM] |
| --- | --- |
| CN1CCCN(c2ccc(NC(=O)C3Cc4sccc4CN3C(=O)Nc3ccc(Cl)cc3)cc2)CC1 (stereo not shown) [Example 27, N-[4-(4-methyl-homopiperazinyl)]phenyl-5N-(4-chlorophenylaminocarbonyl)-4,5,6,7-tetrahydro-thieno[3,2-c]pyridine-6-carboxamide] | ≤ 100 |
| O=C(Nc1ccc(-n2ccccc2=O)cc1)C1Cc2cc(O)ccc2CN1C(=O)Nc1ccc(Cl)cc1 (stereo not shown) [Example 39, N-[4-(2-pyridon-1-yl)phenyl]-2N-(4-chlorophenylaminocarbonyl)-6-hydroxy-1,2,3,4-tetrahydroisoquinoline-3-carboxamide] | ≤ 100 |
| O=C([C@H]1Cc2ccccc2CN1C(=O)Nc1ccc(Cl)cc1)N1CCC(n2ccccc2=O)CC1 [Example 43, (3R) 4-(2-pyridon-1-yl)piperidin-1-yl 2N-(4-chlorophenylaminocarbonyl)-1,2,3,4-tetrahydroisoquinoline-3-carboxamide] | ≤ 100 |
| CN1CCCN(c2ccc(NC(=O)[C@H]3Cc4ccccc4CN3C(=O)Nc3ccc(Cl)cc3)c(F)c2)CC1 [Example 35, (3R) N-[4-(4-methyl-homopiperazinyl)-2-fluorophenyl]-2N-(4-chlorophenylaminocarbonyl)-1,2,3,4-tetrahydroisoquinoline-3-carboxamide] | ≤ 100 |
| Cc1cccc2c1CC(C(=O)Nc1ccc(C(=N)N(C)C)cc1)N(C(=O)Nc1ccc(Cl)cc1)C2 (stereo not shown) [Example 20, N-[4-(dimethylaminoimino)phenyl]-2N-(4-chlorophenylaminocarbonyl)-5-methyl-1,2,3,4-tetrahydroisoquinoline-3-carboxamide] | ≤ 100 |
| CN1CCCN(c2ccc(NC(=O)C3Cc4ccccc4CN3C(=O)Nc3ccc(Cl)cc3)cc2)CC1 (stereo not shown) [Example 10, N-[4-(4-methyl-homopiperazinyl)]phenyl-2N-(4-chlorophenylaminocarbonyl)-1,2,3,4-tetrahydroisoquinoline-3-carboxamide] | ≤ 100 |
| Cc1cccc2c1CC(C(=O)Nc1ccc(C(=N)N3CCCC3)cc1)N(C(=O)Nc1ccc(Cl)cc1)C2 (stereo not shown) [Example 19, N-[4-(pyrrolidinylimino)phenyl]-2N-(4-chlorophenylaminocarbonyl)-5-methyl-1,2,3,4-tetrahydroisoquinoline-3-carboxamide] | ≤ 100 |
| O=C(Nc1ccc(-n2ccccc2=O)cc1)[C@@H]1Cc2ccccc2CN1C(=O)Nc1ccc(Cl)cc1 [Example 37, (3S)N-[4-(2-pyridon-1-yl)phenyl]-2N-(4-chlorophenylaminocarbonyl)-1,2,3,4-tetrahydroisoquinoline-3-carboxamide] | ≤ 100 |
| O=C(Nc1ccc(-c2cccc[n+]2[O-])cc1)C1Cc2ccccc2CN1C(=O)Nc1ccc(Cl)cc1 (stereo not shown) [Example 2, N-[4-(1N-oxo-pyridin-2-yl)phenyl]-2N-(4-chlorophenylaminocarbonyl)-1,2,3,4-tetrahydroisoquinoline-3-carboxamide] | ≤ 100 |
| O=C(Nc1ccc(-n2ccccc2=O)cc1)[C@H]1Cc2ccccc2CN1C(=O)Nc1ccc(Cl)s1 [Example 48, (3R) N-[4-(2-pyridon-1-yl)phenyl]-2N-[5-(2-chlorothiophene)aminocarbonyl]-1,2,3,4-tetrahydroisoquinoline-3-carboxamide] | ≤ 100 |
| CN1CCCN(c2ccc(NC(=O)C3c4ccccc4CN3C(=O)Nc3ccc(Cl)cc3)cc2)CC1 (stereo not shown) [Example 30, N-[4-(4-methyl-homopiperazinyl)phenyl]-2N-(4-chlorophenylaminocarbonyl)-2,3-dihydro-1H-isoindole-1-carboxamide] | 100 to 500 |
| CN(C)C(=N)c1cccc(CNC(=O)C2Cc3ccccc3CN2C(=O)Nc2ccc(Cl)cc2)c1 (stereo not shown) [Example 6, N-[3-(dimethylaminoimino)benzyl]-2N-(4-chlorophenylaminocarbonyl)-1,2,3,4-tetrahydroisoquinoline-3-carboxamide] | ≥ 500 |
| O=C([C@H]1Cc2ccccc2CN1C(=O)Nc1ccc(Cl)cc1)N1CCC(N2CCOCC2=O)CC1 [Example 44, (3R) 4-(3-morpholinon-4-yl)piperidin-1-yl 2N-(4-chlorophenylaminocarbonyl)-1,2,3,4-tetrahydroisoquinoline-3-carboxamide] | ≤ 100 |
